# Experimental data: patent publication US10981894B2, “Melanocortin subtype-2 receptor (MC2R) antagonists and uses thereof” (Crinetics Pharmaceuticals, Inc., priority 2018, dated 2021)
# Target: hMC2 receptor (Homo sapiens, UniProt Q01718)
# Assay: hMC2 membrane binding assay ([125I]ACTH (1-39) Tyr23, SPA)
# Design: scale not given here
# Details: crude hMC2R membranes from CRE-bla-CHO-K1 cells expressing hMC2 receptor and hMRAP; [125I]ACTH (1-39) Tyr23 0.2 nM; 1.5 hours at room temperature; read-out: MC2R binding potency
# Procedure: Crude membrane fractions are prepared from CRE-bla-CHO-K1 cells stably expressing hMC2 receptor and hMRAP accessory protein (Thermo Fisher). The cells are grown to 85-100% confluence on standard tissue culture dishes in GlutaMax DMEM growth media (Gibco) with following additives: 10% dialyzed FBS (Gemini), 0.1 mM NEAA (Gibco), 25 mM HEPES (Gibco), 5 μg/mL blasticidin (Goldbio), 100 μg/mL zeocin (Invitrogen), 600 μg/mL hygromycin (Goldbio). To prepare membranes, cells are scraped and collected in 1× Dulbecco's phosphate buffered saline (Corning) and then pelleted at 1000 RPM's. The cell pellet is reconstituted in membrane preparation buffer (20 mM HEPES, 6 mM MgCl2 and 1 mM EGTA, protease inhibitor tablets (Pierce) adjusted to pH 7.4), homogenized using a dounce homogenizer, and the resulting membrane fraction is pelleted by centrifugation at 12,000 RPM's. The membrane pellet is resuspended in membrane preparation buffer, snap freezed and stored at −80° C. for later use.
# Binding Assay for hMC2 Antagonists Protocol:
# The hMC2 membrane binding assay utilizes the following components: radiolabel [^125I]ACTH (1-39) Tyr23 (PerkinElmer), wheatgerm agglutinin coated PVT SPA beads (PerkinElmer), crude hMC2R membranes, and compounds. Briefly hMC2R membranes are incubated with SPA beads in binding assay buffer (50 mM HEPES, 5 mM MgCl2, 1 mM CaCl2, 0.2% BSA, protease inhibitor tablets (Pierce) adjusted to pH7.4) prior to assay initiation. A dose response of compound (the final concentration of compound are typically 0-10,000 nM), SPA membranes, and [^125I]ACTH (1-39) Tyr23 at a final concentration of 0.2 nM is plated in a 96-well assay plate and allowed to incubate 1.5 hours at room temperature. Assay plates are read using a Top Count NXT and Ki values for compounds are determined using a GraphPad Prism 6 non-linear regression analysis.
# Chain of hMC2 receptor (Q01718 whole entry): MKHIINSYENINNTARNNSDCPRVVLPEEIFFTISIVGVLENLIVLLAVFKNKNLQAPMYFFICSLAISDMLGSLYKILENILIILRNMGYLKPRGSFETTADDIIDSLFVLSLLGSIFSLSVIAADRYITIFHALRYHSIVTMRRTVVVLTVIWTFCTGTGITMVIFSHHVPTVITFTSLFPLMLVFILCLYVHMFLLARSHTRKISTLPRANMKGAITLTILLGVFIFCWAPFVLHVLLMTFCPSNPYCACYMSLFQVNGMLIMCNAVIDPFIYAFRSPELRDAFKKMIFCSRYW
# Chain of hMC2 receptor (Q8TCY5 whole entry partner): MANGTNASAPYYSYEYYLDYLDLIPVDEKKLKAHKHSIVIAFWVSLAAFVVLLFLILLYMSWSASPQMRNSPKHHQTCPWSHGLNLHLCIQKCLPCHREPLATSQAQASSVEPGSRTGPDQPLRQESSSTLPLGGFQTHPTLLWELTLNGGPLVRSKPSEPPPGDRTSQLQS
row,SMILES,Ki
1,"CCOc1ncccc1-c1ccc(N2CCN(C(=O)c3ccc(F)cc3C(F)F)C[C@H]2CC)c(C(=O)NCCNC)c1F [Compound 1-177, 6-[(2R)-4-[2-(difluoromethyl)-4-fluorobenzoyl]-2-ethylpiperazin-1-yl]-3-(2-ethoxypyridin-3-yl)-2-fluoro-N-[2-(methylamino)ethyl]benzamide]",< 10 nM
2,"CCOc1ccccc1-c1ccc(N2CCN(C(=O)n3ccc4cccc(C#N)c43)C[C@H]2CC)c(C(=O)N[C@@H]2CCN(C)C2)n1 [Compound 1-432, 3-[(2R)-4-(7-cyano-1H-indole-1-carbonyl)-2-ethylpiperazin-1-yl]-6-(2-ethoxyphenyl)-N-[(3R)-1-methylpyrrolidin-3-yl]pyridine-2-carboxamide]",< 10 nM
3,"CCOc1ncccc1-c1ccc(N2CCN(C(=O)c3ccc(Cl)cc3N3CC[C@H](N)C3)C[C@H]2CC)c(C(=O)NCCN)c1 [Compound 1-57, N-(2-aminoethyl)-2-[(2R)-4-{2-[(3S)-3-aminopyrrolidin-1-yl]-4-chlorobenzoyl}-2-ethylpiperazin-1-yl]-5-(2-ethoxypyridin-3-yl)benzamide]",< 10 nM
4,"CCOc1ncccc1-c1ccc(N2CCN(C(=O)O[C@H](C(C)(C)C)C(F)(F)F)C[C@H]2CC)c(C(=O)N[C@@H]2CCN(C)C2)n1 (single isomer, unassigned) [Compound 1-406]",< 10 nM
5,"CCOc1ncccc1-c1ccc(N2CCN(C(=O)c3ccc(Cl)cc3C(F)(F)F)C[C@H]2CC)c(C(=O)NCC2CN(C)C2)n1 [Compound 1-223, 5-[(2R)-4-[4-chloro-2-(trifluoromethyl)benzoyl]-2-ethylpiperazin-1-yl]-2′-ethoxy-N-[(1-methylazetidin-3-yl)methyl]-[2,3′-bipyridine]-6-carboxamide]",< 10 nM
6,"CCOc1ncccc1-c1ccc(N2CCN(C(=O)C3(C(F)(F)F)CC(F)(F)C3)C[C@H]2CC)c(C(=O)N[C@@H]2CCNC2)n1 [Compound 1-298, 5-[(2R)-4-[3,3-difluoro-1-(trifluoromethyl)cyclobutanecarbonyl]-2-ethylpiperazin-1-yl]-2′-ethoxy-N-[(3R)-pyrrolidin-3-yl]-[2,3′-bipyridine]-6-carboxamide]",< 10 nM
7,"CCOc1ncccc1-c1ccc(N2CCN(C(=O)C3(CC)CCCC3)C[C@H]2CC)c(C(=O)NCCNC)n1 [Compound 1-264, 2′-ethoxy-5-[(2R)-2-ethyl-4-(1-ethylcyclopentanecarbonyl)piperazin-1-yl]-N-[2-(methylamino)ethyl]-[2,3′-bipyridine]-6-carboxamide]",< 10 nM
8,"CCNc1ccc(C(=O)N2CCN(c3ccc(-c4cccnc4OCC)nc3C(=O)NCCNC)[C@H](CC)C2)c(C(F)(F)F)n1 [Compound 1-225, 2′-ethoxy-5-[(2R)-2-ethyl-4-[6-(ethylamino)-2-(trifluoromethyl)pyridine-3-carbonyl]piperazin-1-yl]-N-[2-(methylamino)ethyl]-[2,3′-bipyridine]-6-carboxamide]",< 10 nM
9,"CCOc1ncccc1-c1ccc(N2CCN(C(=O)c3ccc(OC)nc3C(F)(F)F)C[C@H]2CC)c(C(=O)NCCNC)n1 [Compound 1-187, 2′-ethoxy-5-[(2R)-2-ethyl-4-[6-methoxy-2-(trifluoromethyl)pyridine-3-carbonyl]piperazin-1-yl]-N-[2-(methylamino)ethyl]-[2,3′-bipyridine]-6-carboxamide]",< 10 nM
10,"CCOc1ncccc1-c1ccc(N2CCN(C(=O)c3ccccc3C(F)(F)F)C[C@H]2CC)c(C(=O)NCCN)c1 [Compound 1-62, N-(2-aminoethyl)-5-(2-ethoxypyridin-3-yl)-2-[(2R)-2-ethyl-4-[2-(trifluoromethyl)benzoyl]piperazin-1-yl]benzamide]",< 10 nM
11,"CCOc1ncccc1-c1ccc(N2CCN(C(=O)c3ccc(Cl)cc3C#N)C[C@H]2CC)c(C(=O)N[C@@H]2CCN(C)C2)n1 [Compound 1-260, 5-[(2R)-4-(4-chloro-2-cyanobenzoyl)-2-ethylpiperazin-1-yl]-2′-ethoxy-N-[(3R)-1-methylpyrrolidin-3-yl]-[2,3′-bipyridine]-6-carboxamide]",< 10 nM
12,"CCOc1ncccc1-c1ccc(N2CCN(C(=O)c3ccc(Cl)cc3OC)C[C@H]2CC)c(C(=O)NCCN)c1 [Compound 1-54, N-(2-aminoethyl)-2-[(2R)-4-(4-chloro-2-methoxybenzoyl)-2-ethylpiperazin-1-yl]-5-(2-ethoxypyridin-3-yl)benzamide]",< 10 nM
13,"CCOc1ncccc1-c1ccc(N2CCN(C(=O)c3ccc(Cl)cc3C(F)(F)F)C[C@H]2CC)c(C(=O)NC[C@@H]2CCN2)c1F [Compound 1-112, N-{[(2S)-azetidin-2-yl]methyl}-6-[(2R)-4-[4-chloro-2-(trifluoromethyl)benzoyl]-2-ethylpiperazin-1-yl]-3-(2-ethoxypyridin-3-yl)-2-fluorobenzamide]",< 10 nM
14,"CCOc1ncccc1-c1ccc(N2CCN(C(=O)c3ccc(Cl)cc3C#N)C[C@H]2CC)c(C(=O)NCCN)c1 [Compound 1-117, N-(2-aminoethyl)-2-[(2R)-4-(4-chloro-2-cyanobenzoyl)-2-ethylpiperazin-1-yl]-5-(2-ethoxypyridin-3-yl)benzamide]",< 10 nM
15,"CCOc1ncccc1-c1ccc(N2CCN(C(=O)C3C4CC5CC(C4)CC3C5)C[C@H]2CC)c(C(=O)NC2CN(C)C2)n1 (stereo partly drawn) [Compound 1-238, 5-[(2R)-4-(adamantane-2-carbonyl)-2-ethylpiperazin-1-yl]-2′-ethoxy-N-(1-methylazetidin-3-yl)-[2,3′-bipyridine]-6-carboxamide]",< 10 nM
16,"CCOc1ncccc1-c1ccc(N2CCN(C(=O)C3(C(F)(F)F)CCC3)C[C@H]2CC)c(C(=O)N[C@@H]2CN3CCC2CC3)n1 [Compound 1-411, N-[(3S)-1-azabicyclo[2.2.2]octan-3-yl]-2′-ethoxy-5-[(2R)-2-ethyl-4-[1-(trifluoromethyl)cyclobutanecarbonyl]piperazin-1-yl]-[2,3′-bipyridine]-6-carboxamide]",< 10 nM

# The remaining lines, values ahead:
row,Ki,SMILES
1,< 10 nM,"CCOc1ccccc1-c1ccc(N2CCN(C(=O)[C@H]3CC[C@@H](C(F)(F)F)CC3)C[C@H]2CC)c(C(=O)N[C@@H]2CCNC2)n1 [Compound 1-335, 6-(2-ethoxyphenyl)-3-[(2R)-2-ethyl-4-[cis-4-(trifluoromethyl)cyclohexanecarbonyl]piperazin-1-yl]-N-[(3R)-pyrrolidin-3-yl]pyridine-2-carboxamide]"
2,< 10 nM,"CCOc1ccccc1-c1ccc(N2CCN(C(=O)N3CCC[C@H]3C(F)(F)F)C[C@H]2CC)c(C(=O)N[C@@H]2CCNC2)n1 [Compound 1-342, 6-(2-ethoxyphenyl)-3-[(2R)-2-ethyl-4-[(2S)-2-(trifluoromethyl)pyrrolidine-1-carbonyl]piperazin-1-yl]-N-[(3R)-pyrrolidin-3-yl]pyridine-2-carboxamide]"
3,< 10 nM,"CCOc1ccccc1-c1ccc(N2CCN(C(=O)[C@H]3CC[C@@H](C(F)(F)F)CC3)C[C@H]2CC)c(C(=O)N[C@@H]2CCN(C)C2)n1 [Compound 1-336, 6-(2-ethoxyphenyl)-3-[(2R)-2-ethyl-4-[cis-4-(trifluoromethyl)cyclohexanecarbonyl]piperazin-1-yl]-N-[(3R)-1-methylpyrrolidin-3-yl]pyridine-2-carboxamide]"
4,< 10 nM,"CCOc1ccccc1-c1ccc(N2CCN(C(=O)N3CCC[C@H]3C(F)(F)F)C[C@H]2CC)c(C(=O)NC[C@@H]2CCN2C)n1 [Compound 1-387, 6-(2-ethoxyphenyl)-3-[(2R)-2-ethyl-4-[(2S)-2-(trifluoromethyl)pyrrolidine-1-carbonyl]piperazin-1-yl]-N-{[(2S)-1-methylazetidin-2-yl]methyl}pyridine-2-carboxamide]"
5,< 10 nM,"CCOc1ccccc1-c1ccc(N2CCN(C(=O)C3(C(F)(F)F)CCCC3)C[C@H]2CC)c(C(=O)NCC2CN(C)C2)n1 [Compound 1-340, 6-(2-ethoxyphenyl)-3-[(2R)-2-ethyl-4-[1-(trifluoromethyl)cyclopentanecarbonyl]piperazin-1-yl]-N-[(1-methylazetidin-3-yl)methyl]pyridine-2-carboxamide]"
6,< 10 nM,"CCOc1ccccc1-c1ccc(N2CCN(C(=O)C3(C(F)F)CCCC3)C[C@H]2CC)c(C(=O)N[C@@H]2CCN(C)C2)n1 [Compound 1-417, 3-[(2R)-4-[1-(difluoromethyl)cyclopentanecarbonyl]-2-ethylpiperazin-1-yl]-6-(2-ethoxyphenyl)-N-[(3R)-1-methylpyrrolidin-3-yl]pyridine-2-carboxamide]"
7,< 10 nM,"CCOc1ccccc1-c1ccc(N2CCN(C(=O)N3CCC[C@H]3C(F)(F)F)C[C@H]2CC)c(C(=O)N[C@H]2CCNC2)n1 [Compound 1-343, 6-(2-ethoxyphenyl)-3-[(2R)-2-ethyl-4-[(2S)-2-(trifluoromethyl)pyrrolidine-1-carbonyl]piperazin-1-yl]-N-[(3S)-pyrrolidin-3-yl]pyridine-2-carboxamide]"
